Test results: ChEMBL document CHEMBL1201862, “PubChem BioAssay data set” (2004)
Calls of active or inactive are those of the source.

Assays:
[1] = target: Peroxisome proliferator-activated receptor gamma/Nuclear receptor coactivator 3 (Homo sapiens, UniProt P37231); type: functional;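 note: agonist potency for raising coactivator recruitment to the receptor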
[2] = target: Peroxisome proliferator-activated receptor gamma/Nuclear receptor coactivator 1 (Homo sapiens, UniProt P37231); type: functional;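 note: agonist potency as compounds enhance coactivator SRC-1 recruitment to PPARgamma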
[3] = target: Peroxisome proliferator-activated receptor gamma/Nuclear receptor coactivator 2 (Homo sapiens, UniProt P37231); type: functional;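 note: agonist potency for raising coactivator recruitment to the receptor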
[4] = microbe, parasite or virus in culture; type: functional; details: Mycobacterium tuberculosis
cells = type: functional
[5] = THP-1 cell cytotoxicity, dose response, cytotoxicity control for non-replicating M. tuberculosis project (AID 489025); type: functional
[6] = Vero E6 cell cytotoxicity, dose response, cytotoxicity control for non-replicating M. tuberculosis project, secondary assay (AID 492998); type: functional, VeroE6; details: Vero C1008
[7] = growth suppression of PTEN-null colon cells, dose response, cell-based, HCT116 PTEN knockout (AID 1047); type: functional;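 note: HCT116 colon tumor cells with PTEN knocked out; cells exposed to compound for 60 hours before readout; potency for loss of cell viability measured by luminescence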
[8] = growth suppression of beta-catenin-knockout colon cells, dose response, cell-based, HCT116, human colon tumor (AID 1045); type: functional;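 note: HCT116 colon tumor cells with beta catenin knocked out; cells exposed to compound for 60 hours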
SUMO-activating enzyme = SUMO-activating enzyme (Homo sapiens, UniProt Q9UBT2); experiment: SUMOylation inhibitor hit validation, confirmation, SUMOylation inhibitor project, biochemical, AlphaScreen (AID 2018); type: functional
Ion channel NompC = Ion channel NompC (Danio rerio, UniProt Q7T1G6); experiment: Fluorescence counterscreen assay for TRPML3 agonists: dose response cell-based high-throughput screening assay to identify agonists of the transient receptor potential channel N1 (TRPN1). [Related pubchem assays: 1526, 1424, 1448 ]; type: functional
Mucolipin-3 = target: T1, Mucolipin-3 (Homo sapiens, UniProt Q8TDD5); experiment: Dose response cell-based high-throughput screening assay for agonists of the transient receptor potential channel ML3 (TRPML3). [Related pubchem assays: 1526, 1424, 1448 ]; type: functional
T1 sequence (Q8TDD5 whole entry): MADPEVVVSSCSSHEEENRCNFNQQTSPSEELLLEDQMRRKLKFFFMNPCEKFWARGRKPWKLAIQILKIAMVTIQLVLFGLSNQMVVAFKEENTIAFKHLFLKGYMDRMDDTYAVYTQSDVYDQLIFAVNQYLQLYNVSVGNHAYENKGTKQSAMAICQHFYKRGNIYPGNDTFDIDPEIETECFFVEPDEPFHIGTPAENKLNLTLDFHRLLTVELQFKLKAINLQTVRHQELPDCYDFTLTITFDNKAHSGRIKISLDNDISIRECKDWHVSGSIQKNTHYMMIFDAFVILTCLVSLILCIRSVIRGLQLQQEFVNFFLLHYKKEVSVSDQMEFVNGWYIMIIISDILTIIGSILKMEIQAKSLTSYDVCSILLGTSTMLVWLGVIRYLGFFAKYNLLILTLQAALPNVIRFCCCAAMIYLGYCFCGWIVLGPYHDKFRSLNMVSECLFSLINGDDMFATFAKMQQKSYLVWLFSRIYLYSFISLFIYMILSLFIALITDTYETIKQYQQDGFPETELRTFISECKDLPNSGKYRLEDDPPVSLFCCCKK

Cytochrome P450 2C9 = Cytochrome P450 2C9 (Homo sapiens, UniProt P11712)
Cytochrome P450 3A4 = Cytochrome P450 3A4 (Homo sapiens, UniProt P08684);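 note: CYP3A4 tested as one member of a cytochrome P450 panel screen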
Cytochrome P450 2C19 = Cytochrome P450 2C19 (Homo sapiens, UniProt P33261); experiment: Cytochrome panel assay with activity outcomes. Panel member name: p450-cyp2c19 Compounds with AC50 equal or less than 10 uM are considered active; type: functional; details: read-out: AC50
[9] = cytotoxicity toward NIH3T3 fibroblasts, dose response, counter-screen, cell-based, ATP luminescence, mouse fibroblasts (AID 2010); type: functional;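 note: cells exposed to compound for about 90 hours before reading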
[10] = inhibitors of intracellular T. cruzi replication, confirmation, NIH3T3 host cells, beta-gal luminescence (AID 2044); type: functional, cell-based;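 note: intracellular parasites grown in NIH/3T3 mouse fibroblasts as host cells; luminescent beta-galactosidase reporter signal from transgenic T. cruzi replicating inside host cells; inhibitors lower the luminescence signal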
[11] = NIH-3T3 fibroblast cytotoxicity, dose response, cytotoxicity control, cell-based, fluorescence, Alamar Blue, secondary assay (AID 2327); type: functional;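 note: NIH-3T3 mouse fibroblasts cultured with fluconazole at 8 µg/mL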
Streptococcus = experiment: Group A Streptococcus viability loss, dose response, counter-screen for streptokinase expression inhibitor project, luminescence, BacTiterGlo (AID 1915); type: functional, organism-based;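 note: potency for reduction of bacterial viability or growth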
BJ [12] = experiment: cytotoxicity toward BJ-TERT fibroblasts, dose response, cell-based, RAS-independent, luminescence (AID 1933); type: functional; details: Homo sapiens
HEK293 [13] = experiment: cells; type: functional, cell-based; details: Homo sapiens
HEK293 [14] = experiment: NOD2 signaling inhibitors in MDP-stimulated cells, cell-based, uHTS, luminescence (AID 2001); type: functional; details: Homo sapiens
[15] = target: Induced myeloid leukemia cell differentiation protein Mcl-1 (Homo sapiens, UniProt Q07820); type: functional
[16] = target: T2, Ubiquitin-conjugating enzyme E2 N (Homo sapiens, UniProt P61088); type: functional
T2 sequence (P61088 whole entry): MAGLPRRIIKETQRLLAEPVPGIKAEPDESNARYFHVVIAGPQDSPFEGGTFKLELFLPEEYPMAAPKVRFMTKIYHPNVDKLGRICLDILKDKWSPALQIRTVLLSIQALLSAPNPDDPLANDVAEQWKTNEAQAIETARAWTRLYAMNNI

HEK293 [17] = experiment: NOD1 signaling inhibitors, primary screen, cell-based, luminescence, uHTS (AID 1578); type: functional; details: Homo sapiens
INS1 = experiment: beta cell apoptosis inhibitors, cytokine rescue, dose response, luminescence, retest (AID 449756); type: functional, cell-based; details: Rattus norvegicus;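 note: cell death triggered by IL-1 beta plus TNF-alpha plus IFN-gamma mixture; protective hits raise ATP signal compared with cytokine alone wells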
[18] = tested on: Streptococcus sp. 'group A'; experiment: growth inhibition of control SK(-) GAS strain, dose response, counter-screen for streptokinase expression inhibitor project, luminescence, kanamycin, BacTiterGlo, confirmation (AID 1900); type: functional, organism-based
[19] = C. albicans growth with fluconazole, confirmation, fluorescence, retest (AID 2467); type: functional, cell-based
Vero = experiment: cells; type: functional; details: Chlorocebus sabaeus
BJ [20] = experiment: cytotoxicity toward BJ-TERT-LT-ST fibroblasts, dose response, cell-based, RAS-independent, luminescence (AID 1935); type: functional; details: Homo sapiens;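 note: BJ fibroblasts immortalized with TERT plus LT and ST oncogenes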
BJ [21] = experiment: cells; type: functional, cell-based; details: Homo sapiens
[22] = cytotoxicity toward DRD oncogenic fibroblasts, dose response, cell-based, non-viral oncogenic, luminescence (AID 1934); type: functional; details: Homo sapiens
HEK293 [23] = experiment: cells; type: functional, cell-based; details: Homo sapiens; remark: listed apart in the source
Bcl-2-related protein A1 = target: T3, Bcl-2-related protein A1 (Mus musculus, UniProt Q07440); type: functional;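 note: confirmatory dose–response counterscreen on Bfl-1, used to check hits from a UBC13 polyubiquitin inhibitor campaign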
T3 sequence (Q07440 whole entry): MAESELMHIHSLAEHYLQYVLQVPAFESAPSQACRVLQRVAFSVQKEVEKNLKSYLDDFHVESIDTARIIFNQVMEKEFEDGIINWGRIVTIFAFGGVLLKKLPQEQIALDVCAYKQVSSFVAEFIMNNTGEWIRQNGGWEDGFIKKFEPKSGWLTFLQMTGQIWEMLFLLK

[24] = target: T2, Ubiquitin-conjugating enzyme E2 N; type: functional; remark: listed apart in the source

Sequence of Cytochrome P450 2C9 (P11712 whole entry): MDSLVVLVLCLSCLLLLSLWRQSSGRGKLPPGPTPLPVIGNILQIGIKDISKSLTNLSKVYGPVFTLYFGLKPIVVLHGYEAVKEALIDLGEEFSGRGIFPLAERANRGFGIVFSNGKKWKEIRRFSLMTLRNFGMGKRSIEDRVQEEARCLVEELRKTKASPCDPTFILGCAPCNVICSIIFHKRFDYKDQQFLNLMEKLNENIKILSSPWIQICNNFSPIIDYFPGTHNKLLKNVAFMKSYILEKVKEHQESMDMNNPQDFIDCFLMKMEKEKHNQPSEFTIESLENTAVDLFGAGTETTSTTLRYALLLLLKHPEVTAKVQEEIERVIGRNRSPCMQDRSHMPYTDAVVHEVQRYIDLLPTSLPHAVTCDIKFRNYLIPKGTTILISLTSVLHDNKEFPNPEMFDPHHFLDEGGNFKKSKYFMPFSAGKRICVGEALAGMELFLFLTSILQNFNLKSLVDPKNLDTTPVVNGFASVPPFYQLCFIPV
Sequence of Cytochrome P450 3A4 (P08684 whole entry): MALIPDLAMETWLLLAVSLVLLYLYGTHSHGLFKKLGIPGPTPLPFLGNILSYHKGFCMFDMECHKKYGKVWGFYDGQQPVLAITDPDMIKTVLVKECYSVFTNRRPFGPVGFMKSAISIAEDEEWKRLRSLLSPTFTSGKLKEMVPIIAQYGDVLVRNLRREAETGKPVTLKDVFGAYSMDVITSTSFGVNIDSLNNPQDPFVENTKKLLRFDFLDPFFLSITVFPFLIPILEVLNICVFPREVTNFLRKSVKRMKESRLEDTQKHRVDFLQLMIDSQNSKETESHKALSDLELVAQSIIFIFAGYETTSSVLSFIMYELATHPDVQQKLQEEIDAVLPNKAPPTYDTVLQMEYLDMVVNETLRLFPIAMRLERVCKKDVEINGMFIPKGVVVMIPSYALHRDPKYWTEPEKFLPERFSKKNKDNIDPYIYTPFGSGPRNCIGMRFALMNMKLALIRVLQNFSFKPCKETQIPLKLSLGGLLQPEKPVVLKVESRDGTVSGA
Sequence of Ion channel NompC (Q7T1G6 whole entry): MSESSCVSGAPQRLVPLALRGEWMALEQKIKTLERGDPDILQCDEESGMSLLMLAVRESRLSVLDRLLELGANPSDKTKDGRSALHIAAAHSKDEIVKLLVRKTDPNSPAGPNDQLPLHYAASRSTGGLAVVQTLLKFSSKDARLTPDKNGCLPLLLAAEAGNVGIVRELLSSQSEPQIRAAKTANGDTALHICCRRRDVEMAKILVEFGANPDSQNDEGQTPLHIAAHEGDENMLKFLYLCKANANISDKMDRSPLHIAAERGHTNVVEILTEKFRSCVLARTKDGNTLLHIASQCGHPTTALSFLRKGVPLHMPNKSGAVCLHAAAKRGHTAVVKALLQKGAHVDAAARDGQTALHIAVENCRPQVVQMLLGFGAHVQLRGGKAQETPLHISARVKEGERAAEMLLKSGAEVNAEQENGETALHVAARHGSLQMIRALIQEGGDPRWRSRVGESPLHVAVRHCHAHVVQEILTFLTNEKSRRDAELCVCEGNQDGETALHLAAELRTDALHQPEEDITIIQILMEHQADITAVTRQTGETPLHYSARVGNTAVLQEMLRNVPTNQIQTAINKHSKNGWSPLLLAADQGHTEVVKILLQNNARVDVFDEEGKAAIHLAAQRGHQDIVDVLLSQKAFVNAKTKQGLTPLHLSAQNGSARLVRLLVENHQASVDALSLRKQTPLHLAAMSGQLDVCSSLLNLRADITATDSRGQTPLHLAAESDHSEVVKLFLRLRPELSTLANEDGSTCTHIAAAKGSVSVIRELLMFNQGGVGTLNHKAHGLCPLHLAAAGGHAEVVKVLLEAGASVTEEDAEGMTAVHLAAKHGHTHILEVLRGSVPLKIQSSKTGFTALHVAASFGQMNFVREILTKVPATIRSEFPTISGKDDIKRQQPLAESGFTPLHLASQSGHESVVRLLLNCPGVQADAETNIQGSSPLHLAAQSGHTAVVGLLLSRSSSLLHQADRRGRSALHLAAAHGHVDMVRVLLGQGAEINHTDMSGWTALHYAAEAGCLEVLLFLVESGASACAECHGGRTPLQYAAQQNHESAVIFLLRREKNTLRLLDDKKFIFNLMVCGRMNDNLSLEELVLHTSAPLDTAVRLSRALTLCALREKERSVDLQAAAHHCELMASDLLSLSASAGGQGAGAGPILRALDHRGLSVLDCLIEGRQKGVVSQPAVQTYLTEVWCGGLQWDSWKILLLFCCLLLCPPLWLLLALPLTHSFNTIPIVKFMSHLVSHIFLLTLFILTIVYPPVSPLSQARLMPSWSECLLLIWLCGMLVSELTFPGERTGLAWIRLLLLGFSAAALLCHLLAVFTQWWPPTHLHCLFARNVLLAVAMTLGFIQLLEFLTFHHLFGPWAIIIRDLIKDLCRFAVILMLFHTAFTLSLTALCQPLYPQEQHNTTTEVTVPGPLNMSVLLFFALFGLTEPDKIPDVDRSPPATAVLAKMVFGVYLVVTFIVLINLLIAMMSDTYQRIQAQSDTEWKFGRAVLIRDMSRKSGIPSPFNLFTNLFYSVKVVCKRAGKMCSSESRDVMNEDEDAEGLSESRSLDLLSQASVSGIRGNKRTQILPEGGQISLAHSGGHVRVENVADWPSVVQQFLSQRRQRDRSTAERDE
Sequence of Peroxisome proliferator-activated receptor gamma/Nuclear receptor coactivator 3 (P37231 whole entry): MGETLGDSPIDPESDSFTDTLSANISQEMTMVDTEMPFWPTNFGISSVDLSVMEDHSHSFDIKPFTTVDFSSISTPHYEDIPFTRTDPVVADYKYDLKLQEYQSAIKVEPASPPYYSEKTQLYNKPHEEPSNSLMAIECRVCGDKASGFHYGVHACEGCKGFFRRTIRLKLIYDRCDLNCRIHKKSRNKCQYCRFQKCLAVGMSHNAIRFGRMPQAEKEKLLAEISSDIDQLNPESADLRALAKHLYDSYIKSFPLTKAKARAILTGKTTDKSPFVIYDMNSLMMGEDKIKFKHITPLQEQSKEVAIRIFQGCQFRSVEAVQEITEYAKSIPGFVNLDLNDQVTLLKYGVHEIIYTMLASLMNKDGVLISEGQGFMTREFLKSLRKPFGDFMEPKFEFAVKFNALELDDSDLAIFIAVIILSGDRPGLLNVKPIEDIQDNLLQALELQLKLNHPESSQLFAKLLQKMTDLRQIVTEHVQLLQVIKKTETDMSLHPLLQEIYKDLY
Sequence of Peroxisome proliferator-activated receptor gamma/Nuclear receptor coactivator 3 (Q9Y6Q9 whole entry, further chain): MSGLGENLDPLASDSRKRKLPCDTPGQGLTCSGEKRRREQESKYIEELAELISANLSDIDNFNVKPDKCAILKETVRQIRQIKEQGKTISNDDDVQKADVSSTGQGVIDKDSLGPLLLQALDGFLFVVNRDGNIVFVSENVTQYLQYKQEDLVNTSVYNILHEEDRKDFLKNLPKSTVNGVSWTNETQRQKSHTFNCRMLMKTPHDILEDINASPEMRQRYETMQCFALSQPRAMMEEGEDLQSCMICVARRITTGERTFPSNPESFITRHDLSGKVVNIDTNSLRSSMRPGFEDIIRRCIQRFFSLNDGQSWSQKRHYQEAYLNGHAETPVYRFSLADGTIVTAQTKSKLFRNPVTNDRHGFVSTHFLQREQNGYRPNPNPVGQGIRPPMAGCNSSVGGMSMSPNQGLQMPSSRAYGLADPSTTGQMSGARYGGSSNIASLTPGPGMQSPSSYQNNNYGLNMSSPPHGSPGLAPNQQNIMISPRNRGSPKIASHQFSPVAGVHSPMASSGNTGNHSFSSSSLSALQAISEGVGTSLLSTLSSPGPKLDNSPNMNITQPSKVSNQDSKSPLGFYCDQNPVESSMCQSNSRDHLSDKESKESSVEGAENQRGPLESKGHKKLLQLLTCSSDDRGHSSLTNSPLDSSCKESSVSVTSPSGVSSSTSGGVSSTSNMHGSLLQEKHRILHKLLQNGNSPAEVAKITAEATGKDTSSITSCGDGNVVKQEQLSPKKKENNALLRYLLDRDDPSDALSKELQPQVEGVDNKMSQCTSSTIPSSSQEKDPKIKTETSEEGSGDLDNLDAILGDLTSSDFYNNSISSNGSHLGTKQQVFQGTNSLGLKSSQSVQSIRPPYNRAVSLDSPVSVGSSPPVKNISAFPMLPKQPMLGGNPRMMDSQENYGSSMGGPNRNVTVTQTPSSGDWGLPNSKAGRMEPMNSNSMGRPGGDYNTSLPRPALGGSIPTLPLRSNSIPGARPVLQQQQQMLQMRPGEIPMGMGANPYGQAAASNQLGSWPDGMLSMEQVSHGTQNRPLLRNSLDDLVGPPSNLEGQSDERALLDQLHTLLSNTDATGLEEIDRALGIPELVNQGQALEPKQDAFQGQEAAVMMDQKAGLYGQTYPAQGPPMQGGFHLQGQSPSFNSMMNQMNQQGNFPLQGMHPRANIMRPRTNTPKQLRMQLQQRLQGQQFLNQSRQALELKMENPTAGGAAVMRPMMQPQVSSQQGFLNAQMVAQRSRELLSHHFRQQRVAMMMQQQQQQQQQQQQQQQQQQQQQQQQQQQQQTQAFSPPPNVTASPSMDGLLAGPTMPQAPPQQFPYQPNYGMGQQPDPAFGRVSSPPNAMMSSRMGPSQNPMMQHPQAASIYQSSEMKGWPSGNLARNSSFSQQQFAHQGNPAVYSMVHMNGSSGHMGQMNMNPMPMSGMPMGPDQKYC
Sequence of Cytochrome P450 2C19 (P33261 whole entry): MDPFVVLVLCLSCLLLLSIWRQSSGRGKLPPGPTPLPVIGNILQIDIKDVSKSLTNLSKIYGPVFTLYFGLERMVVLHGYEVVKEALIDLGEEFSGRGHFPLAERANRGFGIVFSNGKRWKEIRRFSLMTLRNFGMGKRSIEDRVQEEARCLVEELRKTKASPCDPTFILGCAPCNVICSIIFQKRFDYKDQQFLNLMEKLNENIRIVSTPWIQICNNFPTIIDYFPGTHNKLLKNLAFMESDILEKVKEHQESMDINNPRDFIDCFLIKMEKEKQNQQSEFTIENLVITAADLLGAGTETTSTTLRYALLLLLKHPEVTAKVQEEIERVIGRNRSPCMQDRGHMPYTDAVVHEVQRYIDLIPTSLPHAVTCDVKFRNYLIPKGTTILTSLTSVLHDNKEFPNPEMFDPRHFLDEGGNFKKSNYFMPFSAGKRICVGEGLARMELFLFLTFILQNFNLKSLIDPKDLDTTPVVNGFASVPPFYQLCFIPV

**Q.** Which results are given for Cc1ccc(-c2csc(NC(=O)c3cc([N+](=O)[O-])ccc3N3CCOCC3)n2)cc1?
**A.** EC50 [1]: > 79.4 µM (not active); EC50 [2]: > 79.4 µM (not active); EC50 [3]: > 79.4 µM (not active)

**Q.** Which CC50 [4] does the source give for Oc1nc2ccccc2c2oc(CCl)nc12 here?
**A.** The CC50 was 12.9 µM (active).

**Q.** And the IC50 (cells)?
**A.** The IC50 was 3.25 µM (active).

**Q.** What about the CC50 [5] of the same compound?
**A.** The CC50 was 20.1 µM (active).

**Q.** What about the CC50 [6] of the same compound?
**A.** Its CC50 is 7.46 µM (active).

**Q.** For COC(=O)c1cn(NC(=O)c2cnccn2)c(=O)c2ccccc12, which EC50 [7] is on record?
**A.** Its EC50 is 9.08 µM (active).

**Q.** And the IC50 (cells)?
**A.** The IC50 was 9.07 µM (active).

**Q.** And the EC50 [8]?
**A.** Its EC50 is 8.3 µM (active).

**Q.** And the CC50 [5]?
**A.** Its CC50 is 24.2 µM (active).

**Q.** What about the CC50 [6] of the same compound?
**A.** The CC50 was 16.2 µM (active).

**Q.** Which IC50 (SUMO-activating enzyme) does the source give for COc1ccc(/C=C(\C#N)C(=O)OCC(=O)NCc2ccccc2Cl)cc1 here?
**A.** The IC50 was 42.3 µM (active).

**Q.** Which results are given for CCc1nnc(NC(=O)COc2ccc(N(C)S(=O)(=O)c3ccc(C)cc3)cc2)s1?
**A.** EC50 (Ion channel NompC): > 29.9 µM (not active); EC50 (Mucolipin-3): 3.27 µM (active)

**Q.** For COc1ccc(-c2nnc(-c3ccc(OCC(C)C)cc3)o2)cc1, which AC50 (Cytochrome P450 2C9) is on record?
**A.** The AC50 was 20 µM (inconclusive).

**Q.** What about the AC50 (Cytochrome P450 3A4) of the same compound?
**A.** The AC50 was “inconclusive”.

**Q.** What about the AC50 (Cytochrome P450 2C19) of the same compound?
**A.** The AC50 was 7.08 µM (inconclusive).

**Q.** Which EC50 [1] does the source give for Cn1c(=O)c(Oc2cc(Cl)cc(Cl)c2)nc2ccccc21 here?
**A.** Its EC50 is 28.8 µM (not active).

**Q.** What about the EC50 [2] of the same compound?
**A.** The EC50 was 24.5 µM (not active).

**Q.** What about the EC50 [3] of the same compound?
**A.** Its EC50 is 21.1 µM (not active).

**Q.** With Cc1ccccc1OCC(=O)Nc1cc(S(=O)(=O)N2CCCCC2)ccc1N1CCN(C)CC1 as the compound, how does the EC50 (Ion channel NompC) read?
**A.** Its EC50 is > 29.9 µM (not active).

**Q.** What about the EC50 [9] of the same compound?
**A.** Its EC50 is > 60 µM (not active).

**Q.** What about the EC50 (Mucolipin-3) of the same compound?
**A.** Its EC50 is 5.43 µM (active).

**Q.** What about the EC50 [10] of the same compound?
**A.** Its EC50 is 0.634 µM (active).

**Q.** What does the source list for Nc1nc(N)c2cc(Sc3ccc4ccccc4c3)ccc2n1?
**A.** EC50 [11]: 5.4 µM (inconclusive); EC50 (Streptococcus): 2.83 µM (active); EC50 (BJ [12]): 9.21 µM (active); IC50 (HEK293 [13]): 11.5 µM (active); IC50 (HEK293 [14]): 5.21 µM (active); IC50 [15]: 3.67 µM (active); IC50 [16]: > 20 µM (inactive); EC50 (HEK293 [17]): > 20 µM (inactive); AC50 (INS1): 7.99 µM (active); EC50 [18]: 0.148 µM (active); EC50 [19]: 1.38 µM (active); CC50 (Vero): 0.8 µM (active); EC50 (BJ [20]): > 150 µM (inconclusive); EC50 (BJ [21]): 2.06 µM (active); EC50 [22]: 2.96 µM (active); IC50 (HEK293 [23]): > 20 µM (inactive)

**Q.** Which IC50 (Bcl-2-related protein A1) does the source give for O=C(NCCCN1CCCC1)c1ccc(Cn2c(=S)[nH]c3ccc(Br)cc3c2=O)cc1 here?
**A.** Its IC50 is > 20 µM (inactive).

**Q.** What about the IC50 [16] of the same compound?
**A.** Its IC50 is 16.7 µM (active).

**Q.** And the IC50 [24]?
**A.** The IC50 was > 20 µM (inactive).

**Q.** What does the source list for Cc1ccc(NC(=O)CC(=O)c2ccc([N+](=O)[O-])cc2)cc1S(=O)(=O)Nc1cccc(Cl)c1?
**A.** IC50 (HEK293 [13]): 7.05 µM (active); IC50 (HEK293 [14]): 9.19 µM (active); EC50 (HEK293 [17]): 9.53 µM (active); IC50 (HEK293 [23]): > 20 µM (inactive)

**Q.** Which results are given for CCOC(=O)C1Cc2c([nH]c3ccccc23)CN1.Cl (stereo unspecified)?
**A.** AC50 (Cytochrome P450 2C9): 17.8 µM (inconclusive); AC50 (Cytochrome P450 3A4): inconclusive

**Q.** For Cc1ccc(Sc2ccc(/C=C3/C(=O)NN(c4ccccc4)C3=O)o2)cc1, which CC50 [4] is on record?
**A.** Its CC50 is > 40 µM (active).

**Q.** And the IC50 (cells)?
**A.** The IC50 was 18.7 µM (active).

**Q.** And the IC50 (HEK293 [13])?
**A.** The IC50 was 7.56 µM (active).

**Q.** And the IC50 (HEK293 [14])?
**A.** Its IC50 is 18.2 µM (inactive).

**Q.** What about the EC50 (HEK293 [17]) of the same compound?
**A.** Its EC50 is > 20 µM (inactive).

**Q.** What about the IC50 (HEK293 [23]) of the same compound?
**A.** Its IC50 is > 20 µM (inactive).
